The source of these data is the Kinase Knowledgebase extract (Sharma et al. 2016).

Values joined by “and” are separate entries in the source; they are usually repeats but may differ in a detail not shown here. Equal values may be shown once. Where only a bound is given, the exact number is not on record here.

For one assay, the target named is MAPK14 (human) (UniProt Q16539). Put plainly: p38 --- TNFalpha Release Inhibition. The settings on record: monocyte.
The subject of another assay is MAPK14 (Lewis rat). Description: Adjuvant-Induced Arthritis Model.
The target in a further assay is MAPK14 (UniProt Q16539). Description: p38-alpha Inhibition.
MAPK14, sequence (Q16539 whole entry, looked up): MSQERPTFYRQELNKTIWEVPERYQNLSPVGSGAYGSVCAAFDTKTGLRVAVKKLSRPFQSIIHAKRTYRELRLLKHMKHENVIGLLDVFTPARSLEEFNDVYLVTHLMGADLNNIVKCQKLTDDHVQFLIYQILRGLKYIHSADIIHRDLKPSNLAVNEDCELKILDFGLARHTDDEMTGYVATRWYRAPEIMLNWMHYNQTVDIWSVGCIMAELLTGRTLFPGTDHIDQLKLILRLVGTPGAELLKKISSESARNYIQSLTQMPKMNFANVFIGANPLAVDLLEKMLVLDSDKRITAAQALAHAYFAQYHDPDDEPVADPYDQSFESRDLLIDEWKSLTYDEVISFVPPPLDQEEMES

MAPK14 (human), sequence (Q16539 whole entry, looked up): as above

As a reminder, the IC50 is the concentration needed to halve the response being measured. A lower IC50 goes with higher potency. In turn, `C[S+]([O-])c1ccc(-c2cc(-c3ccncc3)c(-c3ccc(F)cc3)[nH]2)cc1` (stereo not given) yielded an IC50 against MAPK14 (human) of 65 nM. Besides, in the assay with MAPK14 (Lewis rat), the ID50 came to 7.4 mg/kg/day; the score is 3.6 and 1.6.
As for `COc1ccc2c(c1)c(CC(=O)O)c(C)n2C(=O)c1ccc(Cl)cc1`, the score with MAPK14 (Lewis rat) is 4.9 and 2.9.
One may read the inhibition as the relative decrease from the control value, in per cent. A lower inhibition goes with a response near the control. Take `O=c1c(-c2ccncc2)c(-c2ccc(F)cc2)[nH]n1-c1ccc(Cl)cc1`: at MAPK14 (concentration not given here), the inhibition stood at 43%.
`CCOC(=O)c1ccc(-c2[nH]c(-c3ccccc3)cc2-c2ccncc2)cc1` registered an IC50 at MAPK14 of more than 10000 nM.
Still for that read-out and setting: for `Fc1ccc(-c2[nH]c(-c3ccc(Cl)cc3)cc2-c2ccccn2)cc1` the value was more than 10000 nM.
The compound `CC(C)(C)Oc1ccc(-c2[nH]c(-c3ccccc3)cc2-c2ccncc2)cc1` came in with an IC50 on MAPK14 of more than 1000 nM.
On the same count and under the same terms, for `Fc1ccc(-c2[nH]c(-c3ccc(Br)cc3)cc2-c2ccncc2)cc1` the value was 100 nM.
At MAPK14 (human), `CS(=O)(=O)c1ccc(-c2cc(-c3ccncc3)c(-c3ccc(F)cc3)[nH]2)cc1` registered an IC50 of 23 nM.
